Measured values as given in patent US6355799B1, “Substituted benzene compounds, process for their preparation, and herbicidal and defoliant compositions containing them” (ISK Americas Incorporated, priority 1997, dated 2002).

Key:
Type in all cases: in vivo
[1] = tested on: upland rice (Oryza sp., var. Tebonnet, RICE); assay: Pre-emerge test, crop safety; settings: pre-emerge, rated 14 days after application, 0 = no damage, 100 = complete death
Procedure, shortened: (§1)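 Plants grown in 10 cm pots of sandy loam mix received acetone-dissolved compounds through a moving flat-fan nozzle. Doses ranged from 15 to 1000 g ai/ha. Pre-emerge pots were seeded one day earlier, post-emerge pots 8–21 days earlier. Fourteen days on, each pot was graded 0–100 for damage.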

[2] = tested on: field corn (Zea mays L., var. Dekalb 535, CORN); assay: Pre-emerge test, crop safety; settings: pre-emerge, rated 14 days after application, 0 = no damage, 100 = complete death
Procedure, shortened: as §1

[3] = tested on: sicklepod (Cassia obtusifolia, CASOB); assay: Pre-emerge test, greenhouse herbicide activity screening; settings: pre-emerge, rated 14 days after application, 0 = no damage, 100 = complete death
Procedure, shortened: (§2)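 Rating: 0–100 visual injury, 14 DAA. Application: acetone, 187 l/ha, 15–1000 g ai/ha, flat-fan track sprayer with nozzle 40–45 cm above soil or canopy. Post-emerge runs used 0.25% v/v surfactant on 2–3 leaf plants.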

[4] = tested on: green foxtail (Setaria viridis, SETVI); assay: as above; settings: pre-emerge, rated 14 days after application, 0 = no damage, 100 = complete death
Procedure, shortened: as §2

[5] = tested on: barnyardgrass (Echinochloa crus-galli, ECHCG); assay: as above; settings: pre-emerge, rated 14 days after application, 0 = no damage, 100 = complete death
Procedure, shortened: as §2

[6] = tested on: johnsongrass (Sorghum halepense, SORHA); assay: as above; settings: pre-emerge, rated 14 days after application, 0 = no damage, 100 = complete death
Procedure, shortened: as §2

[7] = tested on: velvetleaf (Abutilon theophrasti, ABUTH); assay: as above; settings: pre-emerge, rated 14 days after application, 0 = no damage, 100 = complete death
Procedure, shortened: as §2

[8] = tested on: ivyleaf morningglory (Ipomoea hederacea, IPOHE); assay: as above; settings: pre-emerge, rated 14 days after application, 0 = no damage, 100 = complete death
Procedure, shortened: as §2

[9] = tested on: lambsquarters (Chenopodium album, CHEAL); assay: as above; settings: pre-emerge, rated 14 days after application, 0 = no damage, 100 = complete death
Procedure, shortened: as §2

[10] = tested on: large crabgrass (Digitaria sanguinalis, DIGSA); assay: as above; settings: pre-emerge, rated 14 days after application, 0 = no damage, 100 = complete death
Procedure, shortened: as §2

[11] = tested on: sicklepod (Cassia obtusifolia, CASOB); assay: Post-emerge test, greenhouse herbicide activity screening; settings: phytotoxicity rating 0-100 (0 no damage, 100 complete death), 14 days after application
Procedure, shortened: (§3)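 Compounds in acetone were track-sprayed at 15-1000 g ai/ha (187 l/ha) on sandy loam pots: pre-emerge one day after seeding, post-emerge at 2-3 leaf stage with 0.25% v/v non-ionic surfactant. Phytotoxicity was rated 14 days later on a 0 (no damage) to 100 (complete death) scale.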

[12] = tested on: green foxtail (Setaria viridis, SETVI); assay: as above; settings: phytotoxicity rating 0-100 (0 no damage, 100 complete death), 14 days after application
Procedure, shortened: as §3

[13] = tested on: barnyardgrass (Echinochloa crus-galli, ECHCG); assay: as above; settings: phytotoxicity rating 0-100 (0 no damage, 100 complete death), 14 days after application
Procedure, shortened: as §3

[14] = tested on: common ragweed (Ambrosia artemisizfolia L., AMBEL); assay: as above; settings: phytotoxicity rating 0-100 (0 no damage, 100 complete death), 14 days after application
Procedure, shortened: as §3

[15] = tested on: johnsongrass (Sorghum halepense, SORHA); assay: as above; settings: phytotoxicity rating 0-100 (0 no damage, 100 complete death), 14 days after application
Procedure, shortened: as §3

[16] = tested on: velvetleaf (Abutilon theophrasti, ABUTH); assay: as above; settings: phytotoxicity rating 0-100 (0 no damage, 100 complete death), 14 days after application
Procedure, shortened: as §3

[17] = tested on: redroot pigweed (Amaranthus retroflexus, AMARE); assay: as above; settings: phytotoxicity rating 0-100 (0 no damage, 100 complete death), 14 days after application
Procedure, shortened: as §3

[18] = tested on: ivyleaf morningglory (Ipomoea hederacea, IPOHE); assay: as above; settings: phytotoxicity rating 0-100 (0 no damage, 100 complete death), 14 days after application
Procedure, shortened: as §3

[19] = tested on: lambsquarters (Chenopodium album, CHEAL); assay: as above; settings: phytotoxicity rating 0-100 (0 no damage, 100 complete death), 14 days after application
Procedure, shortened: as §3

[20] = tested on: large crabgrass (Digitaria sanguinalis, DIGSA); assay: as above; settings: phytotoxicity rating 0-100 (0 no damage, 100 complete death), 14 days after application
Procedure, shortened: as §3

[21] = tested on: redroot pigweed (Amaranthus retroflexus, AMARE); assay: Pre-emerge test, greenhouse herbicide activity screening; settings: pre-emerge, rated 14 days after application, 0 = no damage, 100 = complete death
Procedure, shortened: as §1

[22] = tested on: upland rice (Oryza sp., var. Tebonnet, RICE); assay: Post-emerge test, crop safety; settings: phytotoxicity rating 0-100 (0 no damage, 100 complete death), 14 days after application
Procedure, shortened: as §1

[23] = tested on: field corn (Zea mays L., var. Dekalb 535, CORN); assay: Post-emerge test, crop safety; settings: phytotoxicity rating 0-100 (0 no damage, 100 complete death), 14 days after application
Procedure, shortened: as §1

With `CC(C)Oc1c(Cl)cc(F)c(-n2c(=O)cc(C(F)(F)F)n(C)c2=O)c1N` [Compound 1-63] the “Pre-emerge crop damage RICE (phytotoxicity rating, scale 0-100)” value ([1]; 63 g ai/ha) was 80, the “Pre-emerge crop damage RICE (phytotoxicity rating, scale 0-100)” value ([1]; 250 g ai/ha) was 95 and the “Pre-emerge crop damage CORN (phytotoxicity rating, scale 0-100)” value ([2]; 63 g ai/ha) was 10. For the same compound, the “Pre-emerge crop damage CORN (phytotoxicity rating, scale 0-100)” value ([2]; 250 g ai/ha) was 90, the “Pre-emerge Herbicidal Activity CASOB (phytotoxicity rating, scale 0-100)” value ([3]; 63 g ai/ha) was 20 and the “Pre-emerge Herbicidal Activity CASOB (phytotoxicity rating, scale 0-100)” value ([3]; 250 g ai/ha) was 90. For the same compound, the “Pre-emerge Herbicidal Activity SETVI (phytotoxicity rating, scale 0-100)” value ([4]; 63 g ai/ha) was 95, the “Pre-emerge Herbicidal Activity SETVI (phytotoxicity rating, scale 0-100)” value ([4]; 250 g ai/ha) was 100 and the “Pre-emerge Herbicidal Activity ECHCG (phytotoxicity rating, scale 0-100)” value ([5]; 63 g ai/ha) was 40. For the same compound, the “Pre-emerge Herbicidal Activity ECHCG (phytotoxicity rating, scale 0-100)” value ([5]; 250 g ai/ha) was 100, the “Pre-emerge Herbicidal Activity SORHA (phytotoxicity rating, scale 0-100)” value ([6]; 63 g ai/ha) was 50 and the “Pre-emerge Herbicidal Activity SORHA (phytotoxicity rating, scale 0-100)” value ([6]; 250 g ai/ha) was 99. For the same compound, the “Pre-emerge Herbicidal Activity ABUTH (phytotoxicity rating, scale 0-100)” value ([7]; 63 g ai/ha) was 100, the “Pre-emerge Herbicidal Activity ABUTH (phytotoxicity rating, scale 0-100)” value ([7]; 250 g ai/ha) was 100 and the “Pre-emerge Herbicidal Activity IPOHE (phytotoxicity rating, scale 0-100)” value ([8]; 63 g ai/ha) was 20. The “Pre-emerge Herbicidal Activity IPOHE (phytotoxicity rating, scale 0-100)” value ([8]; 250 g ai/ha) was 95, the “Pre-emerge Herbicidal Activity CHEAL (phytotoxicity rating, scale 0-100)” value ([9]; 63 g ai/ha) was 100 and the “Pre-emerge Herbicidal Activity CHEAL (phytotoxicity rating, scale 0-100)” value ([9]; 250 g ai/ha) was 100. The “Pre-emerge Herbicidal Activity DIGSA (phytotoxicity rating, scale 0-100)” value ([10]; 63 g ai/ha) was 80, the “Pre-emerge Herbicidal Activity DIGSA (phytotoxicity rating, scale 0-100)” value ([10]; 250 g ai/ha) was 100 and the “Post-emerge Herbicidal Activity CASOB” value ([11]; 63 g ai/ha) was 0. The “Post-emerge Herbicidal Activity CASOB” value ([11]; 250 g ai/ha) was 0, the “Post-emerge Herbicidal Activity SETVI” value ([12]; 63 g ai/ha) was 0 and the “Post-emerge Herbicidal Activity SETVI” value ([12]; 250 g ai/ha) was 20. The “Post-emerge Herbicidal Activity ECHCG” value ([13]; 63 g ai/ha) was 0, the “Post-emerge Herbicidal Activity ECHCG” value ([13]; 250 g ai/ha) was 30 and the “Post-emerge Herbicidal Activity AMBEL” value ([14]; 63 g ai/ha) was 0. The “Post-emerge Herbicidal Activity AMBEL” value ([14]; 250 g ai/ha) was 50, the “Post-emerge Herbicidal Activity SORHA” value ([15]; 63 g ai/ha) was 0 and the “Post-emerge Herbicidal Activity SORHA” value ([15]; 250 g ai/ha) was 0. For the same compound, the “Post-emerge Herbicidal Activity ABUTH” value ([16]; 63 g ai/ha) was 70, the “Post-emerge Herbicidal Activity ABUTH” value ([16]; 250 g ai/ha) was 100 and the “Post-emerge Herbicidal Activity AMARE” value ([17]; 63 g ai/ha) was 10. The “Post-emerge Herbicidal Activity AMARE” value ([17]; 250 g ai/ha) was 10, the “Post-emerge Herbicidal Activity IPOHE” value ([18]; 63 g ai/ha) was 95 and the “Post-emerge Herbicidal Activity IPOHE” value ([18]; 250 g ai/ha) was 90. The “Post-emerge Herbicidal Activity CHEAL” value ([19]; 63 g ai/ha) was 20, the “Post-emerge Herbicidal Activity CHEAL” value ([19]; 250 g ai/ha) was 50 and the “Post-emerge Herbicidal Activity DIGSA” value ([20]; 63 g ai/ha) was 0. The “Post-emerge Herbicidal Activity DIGSA” value ([20]; 250 g ai/ha) was 0, the “Pre-emerge Herbicidal Activity AMARE (phytotoxicity rating, scale 0-100)” value ([21]; 63 g ai/ha) was 100 and the “Pre-emerge Herbicidal Activity AMARE (phytotoxicity rating, scale 0-100)” value ([21]; 250 g ai/ha) was 100. For the same compound, the “Post-emerge Herbicidal Activity RICE (crop damage)” value ([22]; 63 g ai/ha) was 10, the “Post-emerge Herbicidal Activity RICE (crop damage)” value ([22]; 250 g ai/ha) was 40 and the “Post-emerge Herbicidal Activity CORN (crop damage)” value ([23]; 63 g ai/ha) was 0. The “Post-emerge Herbicidal Activity CORN (crop damage)” value ([23]; 250 g ai/ha) was 0.
